Results reported in PubChem BioAssay AID248 (DTP/NCI, 2004).
Inconclusive results and toxic doses are left out. Cut-off read from the data, not from the text of the source: active = T/C of 150% or more; inactive = T/C below 125%.

Tested on: L1210 leukemia ip in BDF1 mice, survival T/C
Assay: NCI In Vivo Anticancer Drug Screen. Data for tumor model L1210 Leukemia (intraperitoneal) in B6D2F1 (BDF1) mice
Conditions: endpoint: mean survival time, higher = longer survival
How it was run: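 Each compound was tested against a transplantable tumor grown in mice. The endpoint was survival, with treated animals benchmarked against vehicle controls as a simple ratio.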

[1] = dose: 100.0 mg/kg/injection, schedule: Q01DX001 (ip), vehicle: saline
[2] = dose: 200.0 mg/kg/injection, schedule: Q01DX001 (ip), vehicle: saline
[3] = dose: 400.0 mg/kg/injection, schedule: Q01DX001 (ip), vehicle: saline
[4] = dose: 50.0 mg/kg/injection, schedule: Q04DX003 (ip), vehicle: saline
[5] = dose: 100.0 mg/kg/injection, schedule: Q04DX003 (ip), vehicle: saline
[6] = dose: 100.0 mg/kg/injection, schedule: Q04DX003 (ip), vehicle: saline with Tween-80
[7] = dose: 200.0 mg/kg/injection, schedule: Q04DX003 (ip), vehicle: saline with Tween-80
[8] = dose: 400.0 mg/kg/injection, schedule: Q04DX003 (ip), vehicle: saline with Tween-80
[9] = dose: 100.0 mg/kg/injection, schedule: Q01DX009 (ip), vehicle: Klucel (hydroxypropylcellulose) (HPC)
[10] = dose: 200.0 mg/kg/injection, schedule: Q01DX009 (ip), vehicle: Klucel (hydroxypropylcellulose) (HPC)
[11] = dose: 400.0 mg/kg/injection, schedule: Q01DX009 (ip), vehicle: Klucel (hydroxypropylcellulose) (HPC)
[12] = dose: 12.5 mg/kg/injection, schedule: Q04DX003 (ip), vehicle: saline
[13] = dose: 25.0 mg/kg/injection, schedule: Q04DX003 (ip), vehicle: saline
[14] = dose: 100.0 mg/kg/injection, schedule: Q01DX001 (ip), vehicle: Klucel (hydroxypropylcellulose) (HPC)
[15] = dose: 200.0 mg/kg/injection, schedule: Q01DX001 (ip), vehicle: Klucel (hydroxypropylcellulose) (HPC)
[16] = dose: 400.0 mg/kg/injection, schedule: Q01DX001 (ip), vehicle: Klucel (hydroxypropylcellulose) (HPC)
[17] = dose: 100.0 mg/kg/injection, schedule: Q01DX009 (ip), vehicle: saline with Tween-80
[18] = dose: 200.0 mg/kg/injection, schedule: Q01DX009 (ip), vehicle: saline with Tween-80
[19] = dose: 400.0 mg/kg/injection, schedule: Q01DX009 (ip), vehicle: saline with Tween-80

Measured: T/C

O=c1c2ccccc2nnn1-c1ccc([N+](=O)[O-])cc1
inactive: [1] 97 % of control | [2] 94 % of control | [3] 95 % of control

O=C(O)c1ccc(P(=O)(O)O)cc1[N+](=O)[O-]
inactive: [4] 95 % of control | [5] 100 % of control

CC(=O)OCC1OC(OC(C)=O)C(NS(=O)(=O)c2ccc(C)cc2)C(OC(C)=O)C1OC(C)=O (stereo not given)
inactive: [1] 102 % of control | [2] 104 % of control | [3] 102 % of control

CC(=O)OCC1OC(Oc2ccc([N+](=O)[O-])cc2[N+](=O)[O-])C(OC(C)=O)C(OC(C)=O)C1OC(C)=O (stereo not given)
inactive: [6] 100 % of control | [7] 91 % of control | [8] 91 % of control

Cc1cccc(NC(=O)CCCCCCCCC(=O)Nc2cccc(C)c2C)c1C
inactive: [9] 92 % of control | [10] 102 % of control | [11] 98 % of control

COC1OC(CI)C(O)C(O)C1O (stereo not given)
inactive: [1] 109 % of control | [2] 109 % of control | [3] 120 % of control

CC(=O)Nc1ccccc1C(C)=O
inactive: [6] 92 % of control | [7] 93 % of control | [8] 93 % of control

CC1(C)C[N+](Cc2ccccc2)(Cc2ccccc2)C1
inactive: dose: 0.78 mg/kg/injection, schedule: Q01DX009 (ip), vehicle: saline 100 % of control | dose: 1.56 mg/kg/injection, schedule: Q01DX009 (ip), vehicle: saline 102 % of control | dose: 3.12 mg/kg/injection, schedule: Q01DX009 (ip), vehicle: saline 100 % of control | dose: 6.25 mg/kg/injection, schedule: Q01DX009 (ip), vehicle: saline 103 % of control | [12] 112 % of control | [13] 98 % of control | [4] 97 % of control

O=C(C(=Nc1ccccc1)C(=Nc1ccccc1)C(=O)c1ccccc1)c1ccccc1
inactive: [14] 97 % of control | [15] 98 % of control | [16] 95 % of control

COc1ccc(CN(C(C)=O)c2cc(C)c([N+](=O)[O-])cc2OC)cc1OC
inactive: dose: 100.0 mg/kg/injection, schedule: Q01DX009 (ip), vehicle: saline 90 % of control | [5] 93 % of control | dose: 200.0 mg/kg/injection, schedule: Q01DX009 (ip), vehicle: saline 94 % of control | dose: 200.0 mg/kg/injection, schedule: Q04DX003 (ip), vehicle: saline 100 % of control | dose: 400.0 mg/kg/injection, schedule: Q01DX009 (ip), vehicle: saline 96 % of control | dose: 400.0 mg/kg/injection, schedule: Q04DX003 (ip), vehicle: saline 98 % of control

NC(N)=N/N=C/c1ccc2c(c1)CCC2
inactive: [12] 101 % of control | [13] 97 % of control | [4] 97 % of control

CC1CN(C(C)C)C1
inactive: dose: 100.0 mg/kg/injection, schedule: Q01DX001 (ip), vehicle: acetone 101 % of control | dose: 200.0 mg/kg/injection, schedule: Q01DX001 (ip), vehicle: acetone 97 % of control

CCCCCCCC/C=C\CCCCCCCC(=O)OCCCCCCCCCCCCCC
inactive: [9] 104 % of control | [10] 98 % of control | [11] 94 % of control

OC12CCCCC13CCC1CCCCC1(O2)O3 (stereo not given)
inactive: [17] 98 % of control | [18] 94 % of control | [19] 102 % of control

O=C(O)/C(=C\c1ccccc1[N+](=O)[O-])c1ccccc1Cl
inactive: [17] 106 % of control | [18] 98 % of control | [19] 95 % of control

O=C(Nc1cccc(C2=NCCN2)c1)c1ccc(C(=O)Nc2cccc(C3=NCCN3)c2)c([N+](=O)[O-])c1
inactive: dose: 1.25 mg/kg/injection, schedule: Q01DX Z (ip), vehicle: saline 93 % of control | dose: 2.5 mg/kg/injection, schedule: Q01DX Z (ip), vehicle: saline 90 % of control | dose: 5.0 mg/kg/injection, schedule: Q01DX Z (ip), vehicle: saline 86 % of control

O=C(O)CSc1ccccc1C(=O)O
inactive: dose: 50.0 mg/kg/injection, schedule: Q01DX001 (ip), vehicle: saline 93 % of control | dose: 75.0 mg/kg/injection, schedule: Q04DX003 (ip), vehicle: Klucel (hydroxypropylcellulose) (HPC) 94 % of control | [14] 96 % of control | [1] 100 % of control | dose: 150.0 mg/kg/injection, schedule: Q04DX003 (ip), vehicle: Klucel (hydroxypropylcellulose) (HPC) 90 % of control | [15] 120 % of control | [2] 102 % of control | dose: 300.0 mg/kg/injection, schedule: Q04DX003 (ip), vehicle: Klucel (hydroxypropylcellulose) (HPC) 92 % of control | [16] 102 % of control

O=C1OC(c2ccccc2)(c2ccccc2)c2cccc3cccc1c23
inactive: [17] 101 % of control | [18] 95 % of control | [19] 91 % of control

CN(C)C=Nc1c2c(C#N)cn(C3OC(CO)C(O)C3O)c2nc[n+]1[O-] (stereo not given)
inactive: dose: 12.5 mg/kg/injection, schedule: Q01DX005 (ip), vehicle: saline 97 % of control | dose: 12.5 mg/kg/injection, schedule: Q01DX009 (ip), vehicle: saline 104 % of control | dose: 25.0 mg/kg/injection, schedule: Q01DX005 (ip), vehicle: saline 102 % of control | dose: 25.0 mg/kg/injection, schedule: Q01DX009 (ip), vehicle: saline 104 % of control | dose: 50.0 mg/kg/injection, schedule: Q01DX005 (ip), vehicle: saline 105 % of control | dose: 50.0 mg/kg/injection, schedule: Q01DX009 (ip), vehicle: saline 109 % of control

c1ccc(N2CCN(c3ccccn3)CC2)nc1
inactive: dose: 50.0 mg/kg/injection, schedule: Q01DX009 (ip), vehicle: saline with Tween-80 92 % of control | [17] 99 % of control | [18] 89 % of control

[O-][n+]1ccnc(C(Cl)(Cl)Cl)c1Cl
inactive: dose: 0.78 mg/kg/injection, schedule: Q01DX009 (ip), vehicle: other 90 % of control | dose: 1.56 mg/kg/injection, schedule: Q01DX009 (ip), vehicle: other 107 % of control | dose: 3.12 mg/kg/injection, schedule: Q01DX009 (ip), vehicle: other 86 % of control

CCOC(=O)N1C2CC=CCC1C1(c3ccccc3)OC2(c2ccccc2)c2ccccc21
inactive: dose: 100.0 mg/kg/injection, schedule: Q04DX002 (ip), vehicle: DMSO 96 % of control

O=[N+]([O-])c1c[nH]c2[nH]cnc(=S)c12
inactive: dose: 100.0 mg/kg/injection, schedule: Q01DX001 (ip), vehicle: carboxymethylcellulose (CMC) 102 % of control | dose: 200.0 mg/kg/injection, schedule: Q01DX001 (ip), vehicle: carboxymethylcellulose (CMC) 87 % of control

Cc1ccc(N=Nc2ccc(C)cc2NC(=O)c2c(Br)c(Br)c(Br)c(Br)c2C(=O)O)cc1
inactive: [17] 93 % of control | [18] 93 % of control

Cc1ccc(NC(N)=S)cc1
inactive: dose: 25.0 mg/kg/injection, schedule: Q04DX003 (ip), vehicle: Klucel (hydroxypropylcellulose) (HPC) 107 % of control | dose: 50.0 mg/kg/injection, schedule: Q04DX003 (ip), vehicle: Klucel (hydroxypropylcellulose) (HPC) 98 % of control | dose: 100.0 mg/kg/injection, schedule: Q04DX003 (ip), vehicle: Klucel (hydroxypropylcellulose) (HPC) 101 % of control
